According to patent US20230338521A1, “METHODS OF TREATING CANCER USING A COMBINATION OF A PD-1 ANTAGONIST, A CHEMORADIATION THERAPY AND A PARP INHIBITOR” (priority 2020, published 2023):
Where “and” joins values, the source holds several entries; their conditions need not be identical. Identical values can stand only once.

Tests used:
[1] = Phase 2 clinical trial of pembrolizumab plus platinum doublet chemotherapy and concurrent radiotherapy: grade ≥3 pneumonitis and adverse events; type: in vivo, human; conditions: pembrolizumab plus CCRT; for Grade ≥3 pneumonitis (all cause), % [90% CI]: all enrolled patients, data cutoff Jan. 3, 2020
From the text: (§1) FIG. 1 illustrate a schema of a clinical phase 2 study of pembrolizumab plus platinum doublet chemotherapy and concurrent radiotherapy as first-line therapy for unresectable, locally advanced stage III NSCLC (NSCLC).
(§2) This is a non-randomized, open label study. FIG. 1 sets forth a schematic of the study. The primary objective is overall response rate (ORR) per response evaluation criteria in solid tumors (RECIST) version 1.1 by blinded independent central review (BICR). Secondary objectives are progression free survival (PFS), overall survival (OS) and safety. Key eligibility criteria are as set forth in FIG. 1 and include Stage IIIA-C, unresectable, locally advanced, pathologically confirmed, previously untreated NSCLC; measurable disease based on RECIST v1.1; eastern cooperative oncology group (ECOG) performance status 0 or 1; adequate pulmonary function; and no prior systemic immunosuppressive therapy within 7 days.
A secondary primary objective of the study was incidence of grade≥3 pneumonitis, which was assessed in all enrolled patients, regardless of their follow-up duration (see table below). In both cohorts, the rate of grade≥3 pneumonitis was less than 10%. One patient in cohort B had interstitial lung disease; the remaining patients had either pneumonitis or radiation pneumonitis. Incidence of other adverse events was consistent with that reported in other pembrolizumab monotherapy studies in NSCLC. Immune-mediated adverse events and infusion reactions (regardless of attribution to study treatment by the investigator) occurred in 47% of patients in cohort A and 27% in cohort B. 15% of patients in cohort A and 8% in cohort B experienced grade 2-5 immune mediated adverse events or infusion reactions.

[2] = tested on: unresectable, locally advanced stage III NSCLC; assay: Phase 2 clinical trial of pembrolizumab plus platinum doublet chemotherapy and concurrent radiotherapy: ORR, duration of response, PFS, OS by BICR per RECIST v1.1; type: in vivo, human; conditions: pembrolizumab plus CCRT; for 6-mo OS rate / 6-mo PFS rate / Response duration ≥6 month, % / Duration of response, median (range): Kaplan-Meier estimate; for Duration of response, median (range): + = no progressive disease at last assessment; for ORR, % [90% CI]: patients with ≥15 weeks follow up, data cutoff Jan. 3, 2020
From the text: as §1, §2
The table below provides ORR and Duration of Response/Efficacy by BICR per RECIST v1.1, patients with ≥15 weeks follow up (Jan. 3, 2020 data cutoff date)
PFS and OS were assessed in patients with at least 15 weeks follow up. As shown in the table above, at the data cutoff, few patients in either cohort had experienced disease progression or died.

[3] = Cohort A, N = 112, ≥15 weeks follow up
[4] = Cohort B, N = 53, ≥15 weeks follow up

pembrolizumab: monoclonal antibody directed to the PD-1 receptor; KEYTRUDA, Merck and Co., Inc.
Immune-mediated adverse events and infusion reactions, Grades 3-5, % ([1]; Cohort A, N = 112): (15.2) %
Immune-mediated adverse events and infusion reactions, Led to death, % ([1]; Cohort A, N = 112): (3.6) %
Treatment Releated Adverse Events, % ([1]; Cohort A, N = 112): (93.8) %
Treatment Releated Adverse Events, Grade 3-5, % ([1]; Cohort A, N = 112): (64.3) %
Treatment Releated Adverse Events, Led to death, % ([1]; Cohort A, N = 112): (3.6) %
Treatment Releated Adverse Events, Led to discontinuation of any treatment component, % ([1]; Cohort A, N = 112): (28.6) %
Grade ≥3 pneumonitis (all cause), % [90% CI] ([1]; Cohort A, N = 112): (8.0) [4.3-13.6] %
Treatment Releated Adverse Events, % ([1]; Cohort B, N = 73): (87.7) %
Treatment Releated Adverse Events, Grade 3-5, % ([1]; Cohort B, N = 73): (41.1) %
Treatment Releated Adverse Events, Led to discontinuation of any treatment component, % ([1]; Cohort B, N = 73): (12.3) %
Grade ≥3 pneumonitis (all cause), % [90% CI] ([1]; Cohort B, N = 73): (5.5) [1.9-12.1] %
grade 2-5 immune mediated adverse events or infusion reactions, % of patients ([1]; cohort A): 15%
grade 2-5 immune mediated adverse events or infusion reactions, % of patients ([1]; cohort B): 8%
patients with interstitial lung disease (among grade ≥3 pneumonitis) ([1]; cohort B): One
incidence of adverse events ([1]; compared with CCRT for stage III NSCLC and pembrolizumab monotherapy): consistent with the established toxicity profiles
Observed rates of grade ≥3 pneumonitis ([1]; compared with immunotherapy combined with CCRT): within the expected range
6-mo OS rate ([2]; Cohort A, N = 112): 87% and 87.2%
6-mo PFS rate ([2]; Cohort A, N = 112): 81.4%
Response duration ≥6 month, % ([2]; Cohort A, N = 112): (91.1) %
Duration of response, median (range) ([2]; Cohort A, N = 112): NR (1.6+ to 10.5+)
ORR, % [90% CI] ([2]; Cohort A, N = 112): (67.0) [58.9-74.3] %
Complete response (CR), % [2, 3]: (2.7) %
No Assessment, % [2, 3]: (8.9) %
Not evaluable, % [2, 3]: (2.7) %
PD, % [2, 3]: (0.9) %
Partial response (PR), % [2, 3]: (64.3) %
6-mo OS rate ([2]; Cohort B, N = 53): 95% and 94.8%
6-mo PFS rate ([2]; Cohort B, N = 53): 85.2%
Response duration ≥6 month, % ([2]; Cohort B, N = 53): (100) %
Duration of response, median (range) ([2]; Cohort B, N = 53): NR (1.7+ to 10.5+)
ORR, % [90% CI] ([2]; Cohort B, N = 53): (56.6) [44.4-68.2] %
Complete response (CR), % [2, 4]: (3.8) %
No Assessment, % [2, 4]: (9.4) %
Partial response (PR), % [2, 4]: (52.8) %
ORR ([2]; both cohorts): exceeded 50%
progression free survival rate at 6 months ([2]; both cohorts, at least 15 weeks follow up): greater than 80%
Median overall survival ([2]; either cohort, at data cutoff): had not been reached
Median progression free survival ([2]; either cohort, at data cutoff): had not been reached
Estimated response duration ([2]; most patients with a response): ≥ 6 months
antitumor activity ([2]; patients with unresectable, locally advanced stage III NSCLC): promising antitumor activity
